Among the data in patent US11618746B2, “Inhibitors of APOL1 and methods of using same” (Vertex Pharmaceuticals Incorporated, priority 2018, dated 2023) are IC50 values, retold here.

Each structure is given as a SMILES string.

The term IC50 denotes the concentration that gives 50% inhibition.

In the assay the target is T1, G1 APOL1 (Homo sapiens, UniProt O14791, I384M/S342G).
T1 construct: expressed in transfected cells
T1 sequence (O14791 28-398 S342G/I384M): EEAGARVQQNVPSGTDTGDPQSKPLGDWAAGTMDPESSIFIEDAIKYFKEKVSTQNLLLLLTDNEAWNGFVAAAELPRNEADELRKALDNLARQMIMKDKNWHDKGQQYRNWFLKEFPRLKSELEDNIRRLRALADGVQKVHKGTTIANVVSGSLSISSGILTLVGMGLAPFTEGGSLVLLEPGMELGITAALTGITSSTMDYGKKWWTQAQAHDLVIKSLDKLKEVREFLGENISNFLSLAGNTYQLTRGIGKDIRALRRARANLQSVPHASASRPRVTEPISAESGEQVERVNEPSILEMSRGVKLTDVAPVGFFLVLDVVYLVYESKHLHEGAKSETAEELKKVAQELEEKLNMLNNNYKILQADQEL
Description: Acute APOL1 Thallium Assay with inducible stable clones of HEK 293 cells. The assay is classed as cell-based. To be noted: HEK T-Rex tetracycline-inducible cells expressing G1 APOL1 (clone G1 DC3.25); inhibition of thallium flux rate. The text has this:
Acute APOL1 Thallium Assay with Inducible Stable Clones of HEK 293 Cells
Apolipoprotein L1 (APOL1) proteins form potassium-permeable cation pores in the plasma membrane. APOL1 risk variants (G1 and G2) induce greater potassium flux than G0 in HEK293 cells. This assay exploits the permeability of thallium (T1+) through ligand-gated potassium channels. The dye produces a bright fluorescent signal upon binding to T1+ conducted through potassium channels. The intensity of the T1+ signal is proportional to the number of potassium channels in the open state. Therefore, it provides a functional indication of the potassium channel activities. During the initial dye-loading step, the T1+ indicator dye as an acetoxymethyl (AM) ester enters the cells through passive diffusion. Cytoplasm esterases cleave the AM ester and relieve its active thallium-sensitive form. The cells are then stimulated with T1+. The increase of fluorescence in the assay represents the influx of T1+ into the cell specifically through the potassium channel (i.e. through APOL1 pores), providing a functional measurement of potassium channel/pore activity. The Thallium assay is conducted with cells expressing G1 APOL1.
APOL1 Cell Line (HEK T-Rex Stable Inducible Cell Line) • HEK T-Rex System • Tetracycline (Tet) inducible mammalian expression system. • Stably express the Tet repressor to regulate transcription. • Expression under the full-length CMV promoter. • APOL1 stable inducible cell line Clone used: G1 DC3.25
Tissue Culture Media • Cell Culture Medium • DMEM +10% FBS +P/S +5 μg/mL blasticidin+1 μg/mL puromycin. • 500 mL DMEM +55 mL FBS +5 mL P/S +280 μL blasticidin S HCl (10 mg/mL)+56 μL puromycin (10 mg/mL). • Cell Assay Medium • DMEM with 2% FBS+pen strep.
Instruments and Equipment • Nuaire cell culture hood, Cat. No. 540-600 • 37° C./5% CO2 incubator link to robotic arm, Liconic: STX110 • Molecular Devices FLIPR^Tetra High throughput cellular screening system, Cat. No. FT0324, Molecular Devices • ThermoFisher MultiDrop 384, Cat. No. 5840300 • Biotek Microfill, Cat. No. ASF1000A-4145 • BioRad TC10 cell counter, Cat. No. 145-0010 Assay Procedures
Cells Scaled Up from Frozen Vials • APOL1 G1 3.25 (HEK293 T-Rex) frozen vials: 5 million cells per vial • Step 1, Day 1: Defrost frozen vial into T-225. • Step 2, Day 5: (when 85% confluent): Split one T-225 at 3×10^6 cells per flask. • Step 3, Day 8: Splits cells to set up for the assay plates as described below.
T-Rex APOL1 HEK cells are split twice per week to keep the confluence state below 85% of the culture flask surface area. Cells can be kept until passage 25. • Cell Culture Medium • DMEM high glucose +10% FBS, +P/S, +5 μg/mL blasticidin, +1 μg/mL puromycin. • 500 mL DMEM, +55 mL FBS, +5 mL P/S, +280 μL blasicidin 10 mg/mL, +56 μL Puromycin 10 mg/mL. • Assay Media • Opti-MEM reduced serum medium from Invitrogen.
Preparation of Cell Assay Plates • Culture medium is removed from the x cm^2 T-flask by aspiration. • The cell monolayer is rinsed with PBS 1× at room temperature. PBS is removed by aspiration. • Cells are trypsinized using Trypsin. • The flasks are incubated at room temperature for 2-3 minutes. • Complete DMEM medium is then added. Cell suspension is then transferred to a 50 mL Falcon polypropylene tube. • Cells are then counted using a Biorad TC10 cell counter and the required amount of cells are centrifuged at 1200 RPM for 5 minutes. Required amount is 1.3×10^6 cells/mL APOL1 T-Rex HEK cells. • The pellet is suspended in the assay medium. • Using the MultiDrop, add 20 μL to each well (corresponds to 26000 cells total per well) of a 384-well black, transparent, flat bottom Poly-D coated plate. • Tetracycline as prepared in the following section is added to the cells before plating to induce APOL1 expression. • Plates are left at room temperature for 20 to 30 minutes before incubation at 37° C. and 5% CO2. […]
Turning to `Cc1cccc2c(CCC(=O)N[C@@H]3C(=O)NC[C@H]3O)c(-c3ccc(F)cc3)[nH]c12` [Compound 71], the IC50 was less than 250 nM.

As to `O=C(CCc1c(-c2ccccc2)[nH]c2c(F)cc(F)cc12)N[C@H]1CCNC1=O` [Compound 25], the IC50 is less than 250 nM.

For the compound `Cc1c(F)ccc2c(CCC(=O)N[C@@H]3C(=O)NC[C@H]3O)c(-c3ccccc3)[nH]c12` [Compound 84], the IC50 was less than 250 nM.

On to `C[C@@H](Cc1c(-c2ccc(F)cc2)[nH]c2c(F)cc(F)cc12)C(=O)N[C@H]1CCNC1=O` [Compound 90, (2S)-3-[5,7-difluoro-2-(4-fluorophenyl)-1H-indol-3-yl]-2-methyl-N-[(3S)-2-oxopyrrolidin-3-yl]propanamide], for which the concentration for half-maximal inhibition (IC50) is more than 1000 nM.

In the case of `O=C(CCc1c(-c2ccc(F)cc2)[nH]c2ccc(Cl)cc12)N[C@@H]1C(=O)NC[C@H]1O` [Compound 45, 3-[5-chloro-2-(4-fluorophenyl)-1H-indol-3-yl]-N-[(3S,4R)-4-hydroxy-2-oxo-pyrrolidin-3-yl]propanamide], the IC50 was less than 250 nM.

In turn, `O=C(CCc1c(-c2ccccc2)[nH]c2c(C(F)(F)F)cc(F)cc12)N[C@@H]1C(=O)NC[C@H]1O` [Compound 132, 3-[5-fluoro-2-phenyl-7-(trifluoromethyl)-1H-indol-3-yl]-N-[(3S,4R)-4-hydroxy-2-oxo-pyrrolidin-3-yl]propanamide] returned an IC50 of less than 250 nM.

For `O=C(CCc1c(-c2ccc(F)cc2)[nH]c2cc(O)ccc12)N[C@@H]1C(=O)NC[C@H]1O` (stereo in doubt) [Compound 110, 3-[2-(4-fluorophenyl)-6-hydroxy-1H-indol-3-yl]-N-[(3S,4R)-4-hydroxy-2-oxo-pyrrolidin-3-yl]propanamide], the IC50 was more than 1000 nM.

In the case of `O=C(CCc1c(-c2ccc(F)cc2)[nH]c2c(C(F)(F)F)cccc12)N[C@@H]1C(=O)NC[C@H]1O` [Compound 111, 3-[2-(4-fluorophenyl)-7-(trifluoromethyl)-1H-indol-3-yl]-N-[(3S,4R)-4-hydroxy-2-oxo-pyrrolidin-3-yl]propanamide], the IC50 is less than 250 nM.

Take `N#Cc1cccc(-c2[nH]c3ccc(F)cc3c2CCC(=O)N[C@H]2CCNC2=O)c1` [Compound 53]: the IC50 was more than 1000 nM.

`COc1cc(F)cc2c(CCC(=O)N[C@H]3CCNC3=O)c(-c3ccc(F)cc3)[nH]c12` [Compound 41] gave an IC50 of 250 to 1000 nM.

For the compound `Cc1ccc(-c2[nH]c3c(F)cc(F)cc3c2CCC(=O)N[C@@H]2CCNC2=O)cc1` [Compound 24], the IC50 was less than 250 nM.

As to `O=C(CCc1c(-c2ccc(F)cc2)[nH]c2c(F)c(F)ccc12)N[C@H]1CCNC1=O` [Compound 57], the half-maximal inhibitory concentration (IC50) was in the range of 250 to 1000 nM.

`CC(CC(=O)N[C@H]1CCNC1=O)c1c(-c2ccc(F)cc2)[nH]c2c(F)cc(F)cc12` (mixture of isomers) [Compound 96, 3-[5,7-difluoro-2-(4-fluorophenyl)-1H-indol-3-yl]-N-[(3S)-2-oxopyrrolidin-3-yl]butanamide] displayed an IC50 of more than 1000 nM.

For the compound `CC(CC(=O)N[C@@H]1C(=O)NC[C@H]1O)c1c(-c2ccc(F)cc2)[nH]c2c(F)cc(F)cc12` (mixture of isomers) [Compound 97, 3-[5,7-difluoro-2-(4-fluorophenyl)-1H-indol-3-yl]-N-[(3S,4R)-4-hydroxy-2-oxo-pyrrolidin-3-yl]butanamide], the IC50 was more than 1000 nM.

`O=C(N[C@H]1CCNC1=O)[C@H](O)Cc1c(-c2ccc(F)cc2)[nH]c2c(F)cc(F)cc12` [Compound 93, (2R)-3-[5,7-difluoro-2-(4-fluorophenyl)-1H-indol-3-yl]-2-hydroxy-N-[(3S)-2-oxopyrrolidin-3-yl]propanamide] displayed an IC50 of more than 1000 nM.

For `O=C(CSc1c(-c2ccc(F)cc2)[nH]c2ccccc12)N[C@@H]1C(=O)NC[C@H]1O` [Compound 130, 2-[[2-(4-fluorophenyl)-1H-indol-3-yl]sulfanyl]-N-[(3S,4R)-4-hydroxy-2-oxo-pyrrolidin-3-yl]acetamide], the IC50 is less than 250 nM.

Consider `C[C@@H](Cc1c(-c2ccc(F)cc2)[nH]c2c(F)cc(F)cc12)C(=O)N[C@@H]1C(=O)NC[C@H]1O` [Compound 91, (2S)-3-[5,7-difluoro-2-(4-fluorophenyl)-1H-indol-3-yl]-N-[(3S,4R)-4-hydroxy-2-oxo-pyrrolidin-3-yl]-2-methyl-propanamide], for which the IC50 is 250 to 1000 nM.

Turning to `O=C(CCc1c(-c2ccccc2)[nH]c2c(F)cccc12)N[C@H]1CCNC1=O` [Compound 60], the IC50 was in the range of 250 to 1000 nM.

As for `O=C(CCc1c(-c2ccc(F)cc2)[nH]c2c(F)c(F)c(F)cc12)N[C@@H]1C(=O)NC[C@H]1O` [Compound 79], the IC50 is less than 250 nM.

Take `O=C1NC[C@@H](O)[C@@H]1NC(=O)[C@@H](O)Cc1c(-c2ccc(F)cc2)[nH]c2c(F)cc(F)cc12` [Compound 94, (2S)-3-[5,7-difluoro-2-(4-fluorophenyl)-1H-indol-3-yl]-2-hydroxy-N-[(3S,4R)-4-hydroxy-2-oxo-pyrrolidin-3-yl]propanamide]: the IC50 is more than 1000 nM.

`O=C(CCc1c(-c2ccc(F)cc2)[nH]c2c(F)cc(F)cc12)N[C@H]1C(=O)NC[C@H]1O` [Compound 15] had an IC50 of 250 to 1000 nM.

In the case of `O=C(CCc1c(-c2ccc(F)cc2)[nH]c2ccccc12)N[C@H]1C(=O)NC[C@H]1O` [Compound 133, 3-[2-(4-fluorophenyl)-1H-indol-3-yl]-N-[(3R,4R)-4-hydroxy-2-oxo-pyrrolidin-3-yl]propanamide], the IC50 lay in the range of 250 to 1000 nM.

In turn, `O=C(CCc1c(-c2ccc(F)cc2)[nH]c2c(F)cc(F)cc12)N[C@H]1C[C@H](CF)NC1=O` [Compound 10] gave an IC50 of more than 1000 nM.

`CC(=O)O[C@@H]1CNC(=O)[C@H]1NC(=O)CCc1c(-c2ccc(F)cc2)[nH]c2c(F)cc(F)cc12` [Compound 4, [(3R,4S)-4-[3-[5,7-difluoro-2-(4-fluorophenyl)-1H-indol-3-yl]propanoylamino]-5-oxo-pyrrolidin-3-yl]acetate] returned an IC50 of more than 1000 nM.

`O=C(CCc1c(-c2ccccc2)[nH]c2c(Cl)cccc12)N[C@@H]1C(=O)NC[C@H]1O` [Compound 74]: the IC50 was less than 250 nM.

For the compound `O=C(CCc1c(-c2ccc(F)cc2)[nH]c2c(F)cc(OC(F)F)cc12)N[C@@H]1C(=O)NC[C@H]1O` [Compound 106], the IC50 is less than 250 nM.

As for `Cc1cc(F)c2[nH]c(-c3ccc(F)cc3)c(CCC(=O)N[C@H]3CCNC3=O)c2c1` [Compound 31], the IC50 fell in the range of 250 to 1000 nM.

Turning to `O=C(CCc1c(-c2ccccc2)[nH]c2c(C3=CCOC3)cccc12)N[C@@H]1C(=O)NC[C@H]1O` [Compound 64], the IC50 is more than 1000 nM.

Regarding `CC(C)(O)c1cccc2c(CCC(=O)N[C@@H]3C(=O)NC[C@H]3O)c(-c3ccccc3)[nH]c12` [Compound 66], the IC50 lay in the range of 250 to 1000 nM.

With `O=C(CCc1c(-c2ccccc2)[nH]c2c(C3CCOC3)cccc12)N[C@@H]1C(=O)NC[C@H]1O` (stereo partly drawn) [Compound 65], the IC50 was 250 to 1000 nM.
